Data as given in patent US12459922B2 (Gilead Sciences, Inc., priority 2022, dated 2025).

Tested on: endogenous cellular STAT1 (phosphorylated at Tyr701) in NCI-H1373 cells
Experiment: Phospho-STAT1 (Tyr701) LANCE Ultra TR-FRET Detection Assay
Format: cell-based
Details: Homo sapiens, NCI-H1373, 48 h, phospho-STAT1 (Tyr701) induction, read-out: NH1373 pSTAT1 EC50
Protocol: Phospho-STAT1 (Tyr701 LANCE Ultra TR-FRET Detection Assay
d. LANCE Ultra phospho-STAT1 (Tyr701) kits are designed for the detection of phosphorylated STAT1 in cell lysates using a simple, homogeneous LANCE Ultra sandwich assay (Cat. #TRF4028M). This assay is intended for assessing compound induction of endogenous levels of cellular STAT1 (phosphorylated at Tyr701) in NCI-H1373 cells. The NCI-H1373 cells are cultured in RPMI 1640 media containing 10% heat inactivated FBS, GlutaMAX, 1% Penicillin-Streptomycin. An Echo acoustic liquid handler is used to transfer 60 nanoliters of compound dilutions using the Echo Qualified, 384-well polypropylene microplate clear flat bottom source plates into a Greiner (#781080) cell culture microplate. NCI-H1373 cells are seeded into these compound-spotted culture plates at 30,000 cells/well in a 60 uL volume in growth media. The plates are incubated in a 5% CO2 humidified incubator at 37° C. for 48 hours. […] After spinning the plate down at 300 rpm for 1 min, the plate is read on an EnVision plate reader set up for Eu3+ Cryptate and fluorescence emission is measured at two different wavelengths (665 nm and 620 nm). The HTRF ratio is then calculated […] for each well to determine the amount of pSTAT1 in the cell lysate, and the data is then normalized to 10 uM GS-1154611 positive and DMSO negative controls.

| EC50 | Structure (SMILES) |
| --- | --- |
| 5.21 nM | CCNc1nc(-c2cc3ncn(CCC[C@H](C)Nc4cn[nH]c(=O)c4C(F)(F)F)c(=O)c3cc2F)ncc1C(F)(F)F [Example 117, 7-[4-(ethylamino)-5-(trifluoromethyl)pyrimidin-2-yl]-6-fluoro-3-[(4S)-4-[[6-oxo-5-(trifluoromethyl)-1H-pyridazin-4-yl]amino]pentyl]quinazolin-4-one] |
| 9.84 nM | C[C@@H](CCCn1ccc2cc(-c3ncc4c(n3)NCCO4)c(F)cc2c1=O)Nc1cn[nH]c(=O)c1C(F)(F)F [Example 118, 6-(7,8-dihydro-6H-pyrimido[5,4-b] [1,4]oxazin-2-yl)-7-fluoro-2-[(4S)-4-[[6-oxo-5-(trifluoromethyl)-1H-pyridazin-4-yl]amino]pentyl]isoquinolin-1-one] |
| 3.36 nM | C[C@@H](CCCn1ccc2cc(-c3ncc(C(F)(F)F)c(N4CC(C#N)C4)n3)c(F)cc2c1=O)Nc1cn[nH]c(=O)c1C(F)(F)F [Example 119, (S)-1-(2-(7-fluoro-1-oxo-2-(4-((6-oxo-5-(trifluoromethyl)-1,6-dihydropyridazin-4-yl)amino)pentyl)-1,2-dihydroisoquinolin-6-yl)-5-(trifluoromethyl)pyrimidin-4-yl)azetidine-3-carbonitrile] |
| 9.73 nM | O=c1[nH]ncc(N2CCC[C@H]2CCCn2ccc3cc(-c4ncc(C(F)(F)F)cn4)c(F)cc3c2=O)c1C(F)(F)F [Example 120, (S)-7-fluoro-2-(3-(1-(6-oxo-5-(trifluoromethyl)-1,6-dihydropyridazin-4-yl)pyrrolidin-2-yl)propyl)-6-(5-(trifluoromethyl)pyrimidin-2-yl)isoquinolin-1(2H)-one] |
| 5.16 nM | Nc1nc(-c2cc3ccn(CCC[C@@H]4CCCN4c4cn[nH]c(=O)c4C(F)(F)F)c(=O)c3cc2F)ncc1C(F)(F)F [Example 121, (S)-6-(4-amino-5-(trifluoromethyl)pyrimidin-2-yl)-7-fluoro-2-(3-(1-(6-oxo-5-(trifluoromethyl)-1,6-dihydropyridazin-4-yl)pyrrolidin-2-yl)propyl)isoquinolin-1(2H)-one] |
| 8.04 nM | COc1cnc(-c2cc3ccn(CCC[C@@H]4CCCN4c4cn[nH]c(=O)c4C(F)(F)F)c(=O)c3cc2F)nc1N [Example 122, (S)-6-(4-amino-5-methoxypyrimidin-2-yl)-7-fluoro-2-(3-(1-(6-oxo-5-(trifluoromethyl)-1,6-dihydropyridazin-4-yl)pyrrolidin-2-yl)propyl)isoquinolin-1(2H)-one] |
| 6.29 nM | Nc1nc(-c2cc3ccn(CC[C@H]4CC[C@@H]4Nc4cn[nH]c(=O)c4C(F)(F)F)c(=O)c3cc2F)ncc1C(F)(F)F [Example 123, 6-(4-amino-5-(trifluoromethyl)pyrimidin-2-yl)-7-fluoro-2-(2-((1R,2S)-2-((6-oxo-5-(trifluoromethyl)-1,6-dihydropyridazin-4-yl)amino)cyclobutyl)ethyl)isoquinolin-1(2H)-one] |
| 11.4 nM | C[C@@H](CCCn1cnc2cc(-c3ncc(C(F)(F)F)c(N4CC(O)C4)n3)c(F)cc2c1=O)Nc1cn[nH]c(=O)c1C(F)(F)F [Example 124, (S)-6-fluoro-7-(4-(3-hydroxyazetidin-1-yl)-5-(trifluoromethyl)pyrimidin-2-yl)-3-(4-((6-oxo-5-(trifluoromethyl)-1,6-dihydropyridazin-4-yl)amino)pentyl)quinazolin-4(3H)-one] |
| 84.8 nM | C[C@@H](CCCn1cnc2cc(-c3ncc(C#N)c(N)n3)c(F)cc2c1=O)Nc1cn[nH]c(=O)c1C(F)(F)F [Example 125, (S)-4-amino-2-(6-fluoro-4-oxo-3-(4-((6-oxo-5-(trifluoromethyl)-1,6-dihydropyridazin-4-yl)amino)pentyl)-3,4-dihydroquinazolin-7-yl)pyrimidine-5-carbonitrile] |

The remaining lines, values behind:

| Structure (SMILES) | EC50 |
| --- | --- |
| COc1cnc(-c2cc3ccn(CCC[C@H](C)Nc4cn[nH]c(=O)c4C(F)(F)F)c(=O)c3cc2F)nc1N [Example 102, 6-(4-amino-5-methoxy-pyrimidin-2-yl)-7-fluoro-2-[(4S)-4-[[6-oxo-5-(trifluoromethyl)-1H-pyridazin-4-yl]amino]pentyl]isoquinolin-1-one] | 8.23 nM |
| C[C@@H](CCCn1ccc2cc(-c3ncc(F)c(N)n3)c(F)cc2c1=O)Nc1cn[nH]c(=O)c1C(F)(F)F [Example 103, 6-(4-amino-5-fluoro-pyrimidin-2-yl)-7-fluoro-2-[(4S)-4-[[6-oxo-5-(trifluoromethyl)-1H-pyridazin-4-yl]amino]pentyl]isoquinolin-1-one] | 39.8 nM |
| C[C@@H](CCCn1ccc2cc(-c3nc(N)ncc3C(F)F)c(F)cc2c1=O)Nc1cn[nH]c(=O)c1C(F)(F)F [Example 105, 6-[2-amino-5-(difluoromethyl)pyrimidin-4-yl]-7-fluoro-2-[(4S)-4-[[6-oxo-5-(trifluoromethyl)-1H-pyridazin-4-yl]amino]pentyl]isoquinolin-1-one] | 465 nM |
| CNc1nc(-c2cc3ccn(CCC[C@H](C)Nc4cn[nH]c(=O)c4C(F)(F)F)c(=O)c3cc2F)ncc1C(F)(F)F [Example 106, 7-fluoro-6-[4-(methylamino)-5-(trifluoromethyl)pyrimidin-2-yl]-2-[(4S)-4-[[6-oxo-5-(trifluoromethyl)-1H-pyridazin-4-yl]amino]pentyl]isoquinolin-1-one] | 2.31 nM |
| C[C@@H](CCCn1ccc2cc(-c3ncc(C4CC4)c(N)n3)c(F)cc2c1=O)Nc1cn[nH]c(=O)c1C(F)(F)F [Example 107, 6-(4-amino-5-cyclopropyl-pyrimidin-2-yl)-7-fluoro-2-[(4S)-4-[[6-oxo-5-(trifluoromethyl)-1H-pyridazin-4-yl]amino]pentyl]isoquinolin-1-one] | 2.22 nM |
| C[C@@H](CCCn1cnc2cc(-c3ncc(C(F)F)c(N)n3)c(F)cc2c1=O)Nc1cn[nH]c(=O)c1C(F)(F)F [Example 108, 7-[4-amino-5-(difluoromethyl)pyrimidin-2-yl]-6-fluoro-3-[(4S)-4-[[6-oxo-5-(trifluoromethyl)-1H-pyridazin-4-yl]amino]pentyl]quinazolin-4-one] | 29.4 nM |
| COc1cnc(-c2cc3ccn(CCC[C@H](C)Nc4cn[nH]c(=O)c4C(F)(F)F)c(=O)c3c(F)c2F)nc1N [Example 109, 6-(4-amino-5-methoxy-pyrimidin-2-yl)-7,8-difluoro-2-[(4S)-4-[[6-oxo-5-(trifluoromethyl)-1H-pyridazin-4-yl]amino]pentyl]isoquinolin-1-one] | 8.59 nM |
| C[C@@H](CCCn1ccc2cc(-c3ncc(C#N)c(N)n3)c(F)c(F)c2c1=O)Nc1cn[nH]c(=O)c1C(F)(F)F [Example 110, 4-amino-2-[7,8-difluoro-1-oxo-2-[(4S)-4-[[6-oxo-5-(trifluoromethyl)-1H-pyridazin-4-yl]amino]pentyl]-6-isoquinolyl]pyrimidine-5-carbonitrile] | 13.4 nM |
| C[C@@H](CCCn1ccc2cc(-c3ncc([N+](=O)[O-])c(N)n3)c(F)cc2c1=O)Nc1cn[nH]c(=O)c1C(F)(F)F [Example 111, 6-(4-amino-5-nitro-pyrimidin-2-yl)-7-fluoro-2-[(4S)-4-[[6-oxo-5-(trifluoromethyl)-1H-pyridazin-4-yl]amino]pentyl]isoquinolin-1-one] | 6.67 nM |
| C[C@@H](CCCn1ccc2cc(-c3ncc4c(n3)NCC4(C)C)c(F)cc2c1=O)Nc1cn[nH]c(=O)c1C(F)(F)F [Example 112, 6-(5,5-dimethyl-6,7-dihydropyrrolo[2,3-d]pyrimidin-2-yl)-7-fluoro-2-[(4S)-4-[[6-oxo-5-(trifluoromethyl)-1H-pyridazin-4-yl]amino]pentyl]isoquinolin-1-one] | 2.07 nM |
| C[C@@H](CCCn1ccc2cc(-c3ncc(C(F)F)c(N)n3)c(F)c(F)c2c1=O)Nc1cn[nH]c(=O)c1C(F)(F)F [Example 113, 6-[4-amino-5-(difluoromethyl)pyrimidin-2-yl]-7,8-difluoro-2-[(4S)-4-[[6-oxo-5-(trifluoromethyl)-1H-pyridazin-4-yl]amino]pentyl]isoquinolin-1-one] | 6.93 nM |
| C[C@@H](CCCn1ccc2cc(-c3nc(N)ncc3C(F)F)c(F)c(F)c2c1=O)Nc1cn[nH]c(=O)c1C(F)(F)F [Example 114, 6-[2-amino-5-(difluoromethyl)pyrimidin-4-yl]-7,8-difluoro-2-[(4S)-4-[[6-oxo-5-(trifluoromethyl)-1H-pyridazin-4-yl]amino]pentyl]isoquinolin-1-one] | 852 nM |
| CNc1nc(-c2cc3ncn(CCC[C@H](C)Nc4cn[nH]c(=O)c4C(F)(F)F)c(=O)c3cc2F)ncc1C(F)(F)F [Example 115, 6-fluoro-7-[4-(methylamino)-5-(trifluoromethyl)pyrimidin-2-yl]-3-[(4S)-4-[[6-oxo-5-(trifluoromethyl)-1H-pyridazin-4-yl]amino]pentyl]quinazolin-4-one] | 3.42 nM |
| C[C@@H](CCCn1cnc2cc(-c3ncc(C(F)(F)F)c(NC4CC4)n3)c(F)cc2c1=O)Nc1cn[nH]c(=O)c1C(F)(F)F [Example 116, 7-[4-(cyclopropylamino)-5-(trifluoromethyl)pyrimidin-2-yl]-6-fluoro-3-[(4S)-4-[[6-oxo-5-(trifluoromethyl)-1H-pyridazin-4-yl]amino]pentyl]quinazolin-4-one] | 6.7 nM |
